Test results published in patent publication US7795263B2, “Pharmaceutical combination for and method of anesthetizing and immobilizing non-domesticated mammals” (Wildlife Laboratories, Inc., priority 2008, dated 2010).

System: captive white-tailed deer (Odocoileus virginianus)
Experiment: BAM-1 / BAM-2 in captive white-tailed deer with NTA antagonist reversal (Example 4)
Type: in vivo
Conditions: adult male not recovered after BAM-2 and NTA-1
Description: BAM was administered to captive white-tailed deer (Odocoileus virginianus) at two dose levels (BAM-1 and BAM-2) in an approved-protocol study, to evaluate efficacy, quality of anesthesia, and quality of recovery following administration of tolazoline, atipamezole, and naltrexone antagonists.
The deer of the study were housed in large (0.4-0.8 ha) forested outdoor pens and were fed 17% protein ration with fresh hay and water available ad libitum. The average ambient temperature at time of immobilization and anesthesia was 14.4° C. Temperatures ranged from −1.7 to 25.6° C. […]
Immediately after BAM injection, each deer was released into a 15×20 m observation pen where the time to first noticeable drug effect (e.g., stumbling, gait changes) was recorded, the sternal time (when deer collapsed without rising again) was recorded, the lateral time (when deer lowered head and became immobile) was recorded, and the approachable time (when deer remained immobile and seemed oblivious to its surroundings) was recorded. […]
The heart rate (determined by auscultation), respiration rate (determined by thoracic movements), rectal temperature, and hemoglobin saturation level were recorded at 0, 10, and 20 minutes after recumbency. […] Heart rate readings from pulse oximetry were compared to heart rates as determined by auscultation. […]

c1ccc(CC2=NCCN2)cc1 [tolazoline]
effect of subsequent IM injection of 250 mg tolazoline: led to recovery from anesthesia, with minimal ataxia
